Reference: PubChem BioAssay AID1259371 (The Scripps Research Institute Molecular Screening Center, 2018)
The source made the active and inactive calls. How the calls were made is not given here.

Molecular target: Microphthalmia-associated transcription factor (Homo sapiens) (UniProt O75030)
Test: MITF inhibitors, potency by titration, dose response, biochemical, AlphaScreen, human (AID 1259371)
Details: AlphaScreen biochemical MITF assay, signal inhibition

Chain of Microphthalmia-associated transcription factor (Homo sapiens) (O75030 whole entry, looked up): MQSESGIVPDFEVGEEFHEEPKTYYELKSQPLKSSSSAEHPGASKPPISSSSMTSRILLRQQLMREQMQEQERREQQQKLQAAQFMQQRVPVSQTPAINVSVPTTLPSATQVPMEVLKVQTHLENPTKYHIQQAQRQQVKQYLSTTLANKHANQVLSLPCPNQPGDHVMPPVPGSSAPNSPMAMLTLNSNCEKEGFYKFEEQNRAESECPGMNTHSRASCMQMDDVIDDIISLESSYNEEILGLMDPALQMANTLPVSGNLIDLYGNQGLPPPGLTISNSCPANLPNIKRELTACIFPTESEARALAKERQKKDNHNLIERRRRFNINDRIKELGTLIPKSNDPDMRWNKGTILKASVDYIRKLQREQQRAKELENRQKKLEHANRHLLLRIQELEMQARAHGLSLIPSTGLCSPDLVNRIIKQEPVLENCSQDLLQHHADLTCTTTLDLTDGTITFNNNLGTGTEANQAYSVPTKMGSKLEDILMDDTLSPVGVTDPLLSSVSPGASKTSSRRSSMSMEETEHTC

`CN(CCC#N)C(=O)COC(=O)c1c2c(nc3ccccc13)/C(=C/c1ccco1)CC2` was tested, and the IC50 was “inactive”.
In the case of `O=C(NCc1ccccc1)N1CCN2C(=O)[C@H]3CCCN3C(=O)[C@H]2C1`, the IC50 is reported as “inactive”.
`Cc1ncn(-c2ccc(N(C)c3ncc4cccc(-c5ccn[nH]5)c4n3)cc2)n1` was tested, and the IC50 was > 6480 nM (inactive).
In the case of `O=c1[nH]cccc1-c1ccc(Nc2nccc(-c3ccc4nc(C5CC5)[nH]c(=O)c4c3)n2)cc1`, the IC50 is reported as “inactive”.
With `CCN(CC)c1ccc(C(c2c(C)[nH][nH]c2=O)c2c(C)[nH][nH]c2=O)cc1` the IC50 was 286 nM.
In the case of `C/C(=N\Nc1ccc(S(=O)(=O)O)cc1)c1ccc([N+](=O)[O-])o1`, the IC50 is reported as > 2160 nM (inactive).
In the case of `CCN(CC)CC(=O)Nc1ccc(OC)cc1`, the IC50 is reported as > 6480 nM (inactive).
`CCOC(=O)N1CCC(NC(=O)CCc2nc(C3=CCN(C)CC3)no2)CC1` was tested, and the IC50 was “inactive”.
For `O=C(/C=C/c1ccco1)NCC(=O)N/N=C/c1ccc(C(=O)O)cc1`, the IC50 was “inactive”.
For `O=C(NCc1ccccc1)N1CCN2C(=O)[C@@H]3CSCN3C(=O)[C@H]2C1`, the IC50 was “inactive”.
For `CN(c1cccc(NS(=O)(=O)c2ccc([N+](=O)[O-])cc2)c1)S(C)(=O)=O`, the IC50 was > 6480 nM (inactive).
In the case of `O=C(c1cccc(F)c1)N1CCN(Cc2ccncc2)CC1`, the IC50 is reported as > 5660 nM (inactive).
For `NC(=O)/C(=C\c1cccc([N+](=O)[O-])c1)NC(=O)c1ccc(Br)cc1`, the IC50 was > 6480 nM (inactive).
With `CSc1ccc(C(=O)O)s1` the IC50 was “inactive”.
For `O=C(O)CSc1cc(Cl)c2nonc2c1[N+](=O)[O-]`, the IC50 was “inactive”.
For `O=C(/C=C/c1ccc(-c2cccc(C(F)(F)F)c2)o1)c1ccco1`, the IC50 was 160 nM.
In the case of `CCn1ccnc1CN1CCN(Cc2cccc(OC)c2)C(CCO)C1` (stereo not given), the IC50 is reported as > 6480 nM (inactive).
`O=C(O)c1ccc(CS(=O)(=O)c2ccccc2)o1` showed an IC50 of 146 nM.
`COC(=O)CCc1cc2c(C)cc(=O)oc2cc1OCc1ccc(C)cc1` was tested, and the IC50 was > 6480 nM (inactive).
`COc1cc(/C=N/N=C2\NC(=O)C(CC(=O)O)S2)ccc1OCc1ccc(C)cc1` (stereo not given) was tested, and the IC50 was “inactive”.
Work on `COC(=O)c1ccc(=O)c2nc3/c(=C/O)c(O)cc(=O)c3[nH]c12` yielded an IC50 of 259 nM.
With `O=C(Nc1ccc(N2CCOCC2)cc1)c1ccnc(Nc2ncccn2)c1` the IC50 was “inactive”.
With `COc1cccc(C(=O)N2CCN(Cc3cccc(Cl)c3)CC2)c1` the IC50 was > 4800 nM (inactive).
`Cc1cc(N=Cc2ccc([N+](=O)[O-])o2)ccc1S(=O)(=O)O` was tested, and the IC50 was “inactive”.
In the case of `C[C@@H]1NC(=O)[C@H]2CN(C(=O)NC3CCCCC3)CCN2C1=O`, the IC50 is reported as “inactive”.
For `CC(C)N(C(=O)COC(=O)c1cc(-c2ccco2)nc2ccccc12)C(C)C`, the IC50 was “inactive”.
`COc1ccc(CN2CCN(Cc3ccccc3OC)CC2)cc1` was tested, and the IC50 was > 7330 nM (inactive).
`C[C@@H](OCc1ccccc1)[C@@H]1NC(=O)[C@H]2CN(C(=O)Nc3cccc(F)c3)CCN2C1=O` was tested, and the IC50 was “inactive”.
With `C[C@@H]1NC(=O)[C@H]2CN(C(=O)NCc3ccccc3)CCN2C1=O` the IC50 was “inactive”.
`S=c1[nH]nc(-c2ccncc2)n1/N=C/C=C/c1ccco1` showed an IC50 of 207 nM.
In the case of `O=C(Nc1ccc(Cl)cc1Cl)N1CCN2C(=O)[C@@H]3CSCN3C(=O)[C@H]2C1`, the IC50 is reported as “inactive”.
Compound `Cc1ccc([N+](=O)[O-])cc1S(=O)(=O)Nc1ccc(Nc2ncccc2[N+](=O)[O-])cc1` has an IC50 of 423 nM.
With `COc1ccc(S(=O)(=O)N2CCN(Cc3ccccc3[N+](=O)[O-])CC2)cc1` the IC50 was > 4330 nM (inactive).
In the case of `N#C/C(=C/c1ccco1)c1cccc(F)c1`, the IC50 is reported as “inactive”.
For `N=C1S/C(=C\c2ccco2)C(=O)N1c1nonc1N`, the IC50 was 34 nM.
In the case of `NS(=O)(=O)c1ccc(N=Cc2cc3c(cc2[N+](=O)[O-])OCO3)cc1`, the IC50 is reported as “inactive”.
In the case of `COc1ccc2nc(-c3ccco3)c(-c3ccco3)nc2c1`, the IC50 is reported as “inactive”.
With `Cn1nnc(-c2ccc(Nc3nccc(-c4ccc5nc(C6CC6)[nH]c(=O)c5c4)n3)cc2)n1` the IC50 was “inactive”.
With `O=C(/C=C/c1ccco1)ON1C(=O)c2ccccc2C1=O` the IC50 was > 6480 nM (inactive).
`Cc1cc2c(c(=O)[nH]1)C(=O)O/C2=C\c1ccco1` was tested, and the IC50 was 15.3 nM.
In the case of `CC[C@H](C)[C@@H]1NC(=O)[C@H]2CN(C(=O)NCc3ccccc3)CCN2C1=O`, the IC50 is reported as “inactive”.
In the case of `CC(=O)CC1=C(C(=O)O)N2C(=O)C(N)C2SC1` (stereo not given), the IC50 is reported as > 6480 nM (inactive).
`O=C(c1ccncc1)N1CCN(Cc2ccccc2[N+](=O)[O-])CC1` was tested, and the IC50 was > 6130 nM (inactive).
With `O=C1c2c(O)cccc2Cc2cccc(O)c21` the IC50 was 232 nM.
`CC(=O)NC1=NC(=O)/C(=C\c2ccc(Br)o2)S1` was tested, and the IC50 was 153 nM.
For `Nc1ccc(NCCO)c(N)c1`, the IC50 was “inactive”.
In the case of `c1cncc(CNc2nc(Nc3ccc(N4CCOCC4)cc3)c3ncn(C4CCCCC4)c3n2)c1`, the IC50 is reported as > 4840 nM (inactive).
For `O=C1N[C@@H](Cc2ccc(O)cc2)C(=O)N2CCN(C(=O)NCc3ccccc3)C[C@H]12`, the IC50 was > 2160 nM (inactive).
For `CC(=O)NS(=O)(=O)c1ccc(NC(=O)c2ccc([N+](=O)[O-])o2)cc1`, the IC50 was “inactive”.
Work on `CC[C@@H]1NC(=O)[C@H]2CN(C(=O)NCc3ccccc3)CCN2C1=O` yielded an IC50 of 436 nM.
For `NC(=O)Cn1cnc2sc3c(c2c1=O)CCC3`, the IC50 was “inactive”.
`NC(=O)c1cccc(-c2cccs2)c1` was tested, and the IC50 was “inactive”.
In the case of `O=C(C1CCC(Nc2nccc(-c3ccc4nc(C5CC5)[nH]c(=O)c4c3)n2)CC1)N1CCCC1` (stereo not given), the IC50 is reported as “inactive”.
For `O=C(O)c1cc(S(=O)(=O)Nc2ccc(-n3cnnn3)cc2)ccc1O`, the IC50 was “inactive”.
For `NC(=O)c1ccccc1NC(=S)NC(=O)/C=C/c1ccco1`, the IC50 was 471 nM.
Compound `N#Cc1c(SCC(=O)O)nc2c(c1-c1ccco1)CCC2` has an IC50 of 194 nM.
With `COc1ccc(CN2CCN(Cc3cccc(Cl)c3)CC2)cc1Br` the IC50 was “inactive”.
For `CCC(C)c1ccccc1OCCNCCN(C)C` (stereo not given), the IC50 was > 6480 nM (inactive).
With `CC1=NN(c2ccc(C(=O)O)c(N)c2)C(=O)C1` the IC50 was “inactive”.
Work on `CNC(=O)Nc1ccc2nc(-c3ccco3)c(-c3ccco3)nc2c1` yielded an IC50 of 47.4 nM.
For `O=C(O)c1cc(N=Cc2ccco2)ccc1O`, the IC50 was 778 nM.
For `CN(C)CCN(C(=O)OCc1ccccc1)c1cc(-c2cn[nH]c2)ccc1NC(=O)OCc1ccccc1`, the IC50 was “inactive”.
With `COc1cc(CN2CCN(C3CCCC3)CC2)cc(OC)c1OC` the IC50 was > 6480 nM (inactive).
`O=C1OC(c2cc(C3=N/C(=C\c4ccccc4)C(=O)O3)cc(C3=N/C(=C/c4ccccc4)C(=O)O3)c2)=N/C1=C\c1ccccc1` gave an IC50 of 819 nM.
In the case of `COc1c(O)cc(O)cc1O`, the IC50 is reported as “inactive”.
For `c1ccc(COc2ccc(OCCCCn3ccnc3)cc2)cc1`, the IC50 was > 6480 nM (inactive).
`COc1cc(C(=O)N2CCN(Cc3ccccc3C)CC2)cc(OC)c1OC` was tested, and the IC50 was > 5620 nM (inactive).
With `COc1ccc2c(c1)CC(C(=O)Nc1ccc(-c3cn[nH]c3)cc1C(=O)N(C)OC)CO2` (stereo not given) the IC50 was “inactive”.
With `COc1ccc2c3c(cccc13)C(=O)N(C)C2=O` the IC50 was “inactive”.
In the case of `Cc1cccc(C(=O)Nc2c3c(nn2-c2ccc(F)cc2)CSC3)c1`, the IC50 is reported as > 5530 nM (inactive).
`O=c1[nH]c(-c2ccco2)nc2sc3c(c12)CCCC3` was tested, and the IC50 was 42.3 nM.
`Cc1sc2nc(C)n3c(=O)n(CC(=O)NCc4ccco4)nc3c2c1C` was tested, and the IC50 was “inactive”.
With `N#C/C(=C\c1ccc(-c2ccccc2C(=O)O)o1)C(=O)NCc1ccco1` the IC50 was 326 nM.
With `O=C(O)c1ccc(NC2OC(CO)C(O)C2O)cc1` (stereo not given) the IC50 was “inactive”.
With `NC(=O)c1cc(NC(=O)COC(=O)COc2cccc(C(F)(F)F)c2)cc(C(N)=O)c1` the IC50 was “inactive”.
For `CC(O)(CNCCN1CCOCC1)COc1ccc(Cl)cc1` (stereo not given), the IC50 was “inactive”.
With `Cc1ccc(/C=C/C(=O)NCc2ccccn2)o1` the IC50 was “inactive”.
Work on `O=c1[nH]c(/C=C/c2ccco2)nc(O)c1[N+](=O)[O-]` yielded an IC50 of 284 nM.
`O=C(O)c1cc(NN=C2CCCC2)ccc1Cl` showed an IC50 of 408 nM.
`Cc1[nH][nH]c(=O)c1C(c1ccc([N+](=O)[O-])o1)c1c(C)[nH][nH]c1=O` was tested, and the IC50 was > 6480 nM (inactive).
With `O=C(O)c1ccc(-n2cccc2)cc1Cl` the IC50 was 626 nM.
With `COc1cccc(COC(=O)Nc2ccc(-c3cn[nH]c3)cc2N(C)CCN(C)C)c1` the IC50 was “inactive”.
With `O=S(=O)(O)c1cc(S(=O)(=O)O)c2cc(O)c(S(=O)(=O)O)cc2c1` the IC50 was 156 nM.
`O=S(=O)(c1ccccc1C(F)(F)F)N1CCC(c2nc3ccccc3[nH]2)CC1` gave an IC50 of 470 nM.
With `C/C(=N\NC(=O)Cc1cc(=O)[nH][nH]1)c1ccco1` the IC50 was “inactive”.
`O=S(=O)(N=S(=O)(/C=C/c1ccccc1)c1ccccc1)c1ccccc1` (stereo not given) was tested, and the IC50 was > 5360 nM (inactive).
With `O=C(N/N=C/C=C/c1ccco1)c1ccncc1` the IC50 was 24.5 nM.
Work on `CC(C)C[C@@H]1NC(=O)[C@H]2CN(C(=O)NC3CCCCC3)CCN2C1=O` yielded an IC50 of 985 nM.
In the case of `Oc1ccc(CCNc2cc(-c3cccs3)ncn2)cc1`, the IC50 is reported as > 6700 nM (inactive).
In the case of `COCCNC(=O)COC(=O)c1cc(-c2ccco2)nc2ccccc12`, the IC50 is reported as “inactive”.
For `CCOC(=O)C1C2NC(=S)N(c3ccc(CC)cc3)C1(C)Oc1c(OCC)cccc12` (stereo not given), the IC50 was > 5530 nM (inactive).
`CC(Oc1ccc(O)cc1)(P(=O)(O)O)P(=O)(O)O` gave an IC50 of 85.5 nM.
For `C[C@@H](O)[C@@H]1NC(=O)[C@H]2CN(C(=O)NCc3ccccc3)CCN2C1=O`, the IC50 was > 2160 nM (inactive).
For `COc1ccc(C)cc1NC(=O)C(NCC(O)c1ccccc1)c1ccccc1` (stereo not given), the IC50 was “inactive”.
In the case of `O=C(Nc1ccc(-c2cn[nH]c2)c(C(F)(F)F)c1)C1COc2ccccc2O1` (stereo not given), the IC50 is reported as > 2160 nM (inactive).
With `O=C1N[C@@H](CSCc2ccccc2)C(=O)N2CCN(C(=O)NC3CCCCC3)C[C@H]12` the IC50 was “inactive”.
`CN(CCc1ccccn1)Cc1ccc(F)cc1` was tested, and the IC50 was “inactive”.
`NC(=O)NC(=O)COC(=O)c1c2c(nc3ccccc13)/C(=C\c1ccco1)CCC2` gave an IC50 of 349 nM.
With `CCc1ccc(NC(=O)CCc2nc(C3=CCN(C)CC3)no2)cc1` the IC50 was “inactive”.
`CCOc1ncccc1C(=O)OCC(=O)Nc1oc(-c2ccco2)c(-c2ccco2)c1C#N` showed an IC50 of 557 nM.
`O=C1N[C@@H](CSCc2ccccc2)C(=O)N2CCN(C(=O)NCc3ccccc3)C[C@H]12` gave an IC50 of 394 nM.
`CC(C)[C@@H]1NC(=O)[C@H]2CN(C(=O)NC3CCCCC3)CCN2C1=O` was tested, and the IC50 was > 2160 nM (inactive).
With `Brc1c(OCCN2CCNCC2)ccc2ccccc12` the IC50 was “inactive”.
With `CCN1CCN(Cc2coc3ccccc3c2=O)CC1` the IC50 was > 6480 nM (inactive).
With `CN(C)CCOCCOc1ccccc1-c1ccccc1` the IC50 was “inactive”.
